# Several values for one entry are separate records, joined by “and”; a condition that tells them apart may be missing. Equal values may be shown once.
# How the values were obtained:
# [1] = Lipid hydroperoxide (LOOH) formation in cholesterol-enriched DLPC model membranes under autoxidation (Example 3); assay type: biochemical; settings: EPA:lipid 1:30, C/P 0.6:1, autoxidation 37° C. 72 hours, vs untreated controls
# Experimental: Levels of lipid hydroperoxides were also measured in cholesterol-enriched membrane prepared in the absence of EPA as a control. […] CHOD-iodide color reagent (stock) was prepared according to a procedure modified from El-Saadani et […], Goher […], Jurgens G. A spectrophotometric assay for lipid peroxides in serum lipoproteins using commercially available reagent. J. Lipid. […] Membrane samples consisting of DLPC±cholesterol were prepared as follows. Component lipids (in chloroform) were transferred to 13×100 mm test tubes and shell-dried under a steady stream of nitrogen gas while vortex mixing. The lipid was co-dried with EPA. Residual solvent was removed by drying for a minimum of 3 h under vacuum. After desiccation, each membrane sample was resuspended in diffraction buffer (0.5 mM HEPES, 154 mM NaCl, pH 7.3) to yield a final phospholipid concentration of 1.0 mg/mL. Multilamellar vesicles (MLV) were formed by vortex mixing for 3 minutes at ambient temperature. […] Absorbances were measured against a CHOD blank at 365 nm using a Beckman DU-640 spectrophotometer. The CHOD colorimetric assay is based on the oxidation of iodide (I^-) by lipid hydroperoxides (LOOH) and proceeds according to the following reaction scheme: […]3^- The quantity of triiodide anion (I3^-) liberated in this reaction is directly proportional to the amount of lipid hydroperoxides present in the membrane sample.
# human sdLDL = test: Copper-induced sdLDL oxidation, TBARS (Example 7); assay type: biochemical
# Experimental: (§1) An experiment to study the antioxidant effect of EPA in LDL and small dense […] performed. […] Fenofibrate, gemfibrozil, and niacin were purchased from Sigma-Aldrich. […] Vitamin E was also incubated with sample aliquots as a positive control.
# unfractionated LDL = test: Copper-induced oxidation of unfractionated LDL, TBARS (Example 7); assay type: biochemical, human; settings: 10 μM, 1 hr
# Experimental: as §1
# [2] = X-ray diffraction of cholesterol domains in POPC/cholesterol model membranes, C/P 1.5:1 (Example 9); settings: drug-to-phospholipid mole ratio 1:30, C/P 1.5:1
# Experimental: Multilamellar vesicles (MLVs) were prepared as binary mixtures that include palmitoyloleoylphosphatidylcholine (POPC) (1.0 mg total phospholipid per sample) and cholesterol at an elevated cholesterol-to-phospholipid (C/P) mole ratio of 1.5:1. […] Samples were shell-dried under nitrogen gas and placed under vacuum for 3 hours to remove residual solvent at room temperature. After desiccation, each sample was resuspended in saline buffer (0.5 mM HEPES, 154 mM NaCl, pH 7.3) to yield a final phospholipid concentration of 2.5 mg/mL. Lipid suspensions were then vortexed for 3 minutes at ambient temperature to form MLVs.
# Briefly, a 100 μL aliquot of each MLV preparation (containing 250 μg MLV) was transferred to a Lucite® sedimentation cell fitted with an aluminum foil substrate designed to collect MLVs into a single membrane pellet upon centrifugation. Samples were then loaded into a Sorvall AH-629 swinging bucket rotor (DuPont Corp., Wilmington, Del.) and centrifuged at 35,000 g, 5° C., for 90 minutes.
# After centrifugal orientation, sample supernatants were aspirated and aluminum foil substrates, each supporting a single membrane pellet, were removed from the sedimentation cells. Sample pellets were dried for 5-10 minutes at ambient conditions, mounted onto curved glass supports, and placed in hermetically-sealed, brass or glass containers (for immediate analysis or temporary storage, respectively). All x-ray diffraction experiments were conducted at 20° C., 74% relative humidity. The latter was established by exposing membrane samples to saturated solutions of […] (K2C4H4O6.½H2O) for at least 1 hour prior to experimental analysis.
# Oriented membrane samples were aligned at grazing incidence with respect to a collimated, mono-chromatic CuKα x-ray beam (Kα1 and Kα2 unresolved; λ=1.54 Å) produced by a Rigaku Rotaflex RU-200, high-brilliance microfocus generator (Rigaku-MSC, The Woodlands, Tex.) as previously described (Mason et al., Biophys. J., vol. 55(4), pages 769-778 (1989)). The samples were initially subjected to x-ray diffraction analysis at least 12 hours after formation of the membrane pellets and retested for up to several days. Analytical x-rays were generated by electron bombardment of a rotating copper anode and are filtered through a thin nickel foil to provide monochromatic radiation (λ=1.54 Å). Collimation of the x-ray beam was achieved using a single Franks mirror. […]
# The d-space for any given membrane multi bilayer is a measurement of the unit cell periodicity of the membrane lipid bilayer (e.g., the distance from the center of one lipid bilayer to the next including surface hydration), and is calculated from Bragg's Law, hλ=2d sin θ, where h is the diffraction order, λ is the wavelength of the x-ray radiation (1.54 Å), d is the membrane lipid bilayer unit cell periodicity, and θ is the Bragg angle equal to one-half the angle between the incident beam and scattered beam.
# The presence of cholesterol domains in a given membrane sample results in the production of distinct Bragg (diffraction) peaks having singular periodicity values of 34 and 17 Å (typically referred to as first- and second-order cholesterol domain peaks). Under the specific temperature and relative humidity conditions established for these experiments, the second-order, 17 Å cholesterol domain peak was well-delineated from other, neighboring cholesterol and phospholipid diffraction peaks and was thus used to quantitate relative cholesterol domain peak intensity. […]
# sdLDL = test: Glucose-induced sdLDL oxidation, MDA/TBARS (Example 10); assay type: biochemical, human; settings: 10.0 μM, glucose 200 mg/dL
# Experimental: Vitamin E (α-tocopherol) purchased from Sigma-Aldrich was prepared in ethanol at 1.0 mM (ε=3.06×10^4 M^−1 cm^−1 at 294 nm) prior to experimental use. Test compounds were further diluted in ethanol or aqueous buffer as needed. Phosphate Buffered Saline (PBS) purchased from Sigma-Aldrich was prepared in double distilled water at 10 mM (138 mM NaCl, 2.7 mM KCl, pH 7.4). […] Lipid oxidation was measured by the colorimetric detection of malondialdehyde (MDA), a marker of oxidative stress.
SMILES,reduction of LOOH levels [1],"effect on sdLDL oxidation (human sdLDL; 10.0 μM, after 4 hours, vs vehicle or DHA)","inhibition of sdLDL oxidation (TBARS formation) (human sdLDL; each agent at 10 μM, 1 hr, vs vehicle, 10 µM)","inhibition of TBARS formation (unfractionated LDL; unfractionated LDL, vs vehicle) [%]",reduction in cholesterol domain peaks vs vehicle [2] [%],MDA formation (sdLDL) [µM],inhibition of sdLDL oxidation (sdLDL; vs vehicle controls) [%],"effect on sdLDL oxidation (human sdLDL; 10 μM, 1 hr, vs vehicle-treated controls)",effect on unfractionated LDL oxidation (unfractionated LDL; vs vehicle-treated controls),effect on cholesterol domains [2],effect on glucose-induced sdLDL oxidation (sdLDL)
"CC/C=C\C/C=C\C/C=C\C/C=C\C/C=C\CCCC(=O)O [EPA, cis-5,8,11,14,17-eicosapentaenoic acid]",greater than 90%,significantly inhibited sdLDL oxidation,93±2% and 92±8%,> 90,65,0.2 ± 0.1,94,–,–,–,–
"O=C(O)c1cccnc1 [Niacin, nicotinic acid]",–,–,–,–,–,–,–,no significant effect,no significant effect,no significant changes in cholesterol domain size,did not inhibit

# From patent publication US11446269B2, “Methods of reducing or preventing oxidation of small dense LDL or membrane polyunsaturated fatty acids” (Amarin Pharmaceuticals Ireland Limited, priority 2014, dated 2022)
